Experimental data taken from US20250213530A1 (GH RESEARCH IRELAND LIMITED, priority 2022, published 2025).

Assays:
[1] = system: patient with postpartum depression (PPD); experiment: Clinical trial of inhaled 5-MeO-DMT (IDR, 6 mg then 12 mg), BPRS; assay type: in vivo, human; conditions: one PPD patient, baseline 6
Excerpt: (§1) The patient completed all planned visit days.

[2] = system: patient with postpartum depression (PPD); experiment: Clinical trial of inhaled 5-MeO-DMT (IDR, 6 mg then 12 mg), Barkin Index of Maternal Functioning (BIMF); assay type: in vivo, human; conditions: one PPD patient
Excerpt: Maternal functioning can, for instance, be assessed using the Barkin Index of Maternal Functioning (BIMF). This index was designed to measure functioning in the year after childbirth. The BIMF is a 20-item self-report measure of functioning. Each item is assigned a score between 0 and 6 so that the maximum total score is 120. The higher the score, the better maternal functioning is rated.
The BIMF identifies the key functional domains of a mother during the postnatal period as: self-care, infant care, mother-child interaction, psychological wellbeing of the mother, social support, management, and adjustment.
as §1

[3] = system: patient with postpartum depression (PPD); experiment: Clinical trial of inhaled 5-MeO-DMT (IDR, 6 mg then 12 mg), MADRS; assay type: in vivo, human; conditions: one PPD patient; for Total MADRS improvement / Total MADRS score: baseline 29
Excerpt: as §1

[4] = Pharmacokinetics after inhalation of 5-MeO-DMT, LC-MS/MS
[5] = system: patient with postpartum depression (PPD); experiment: Clinical trial of inhaled 5-MeO-DMT, safety and tolerability; assay type: in vivo, human; conditions: one PPD patient
Excerpt: as §1

COc1ccc2[nH]cc(CCN(C)C)c2c1 [5-MeO-DMT]
BPRS Tension improvement ([1]; Day 1): 5
BPRS Tension improvement ([1]; Discharge): 5
BIMF item 19 (As time goes on, I am getting better at taking care of my baby) score ([2]; Day 7, Day 0 score 0): 1
BIMF item 16 (I worry about how other people judge me (as a mother)) score ([2]; Day 7, Day 0 score 3): 5
BIMF item 13 (I am taking good care of my physical needs) score ([2]; Day 7, Day 0 score 4): 5
BIMF item 5 (I am able to relax and enjoy time with my baby) score ([2]; Day 7, Day 0 score 5): 6
BIMF item 9 (I am getting enough encouragement from other people) score ([2]; Day 7, Day 0 score 5): 6
BIMF item 10 (I trust my own feelings (instincts) when it comes to taking care of my baby) score ([2]; Day 7, Day 0 score 5): 6
BIMF item 11 (I take a little time each week to do something for myself) score ([2]; Day 7, Day 0 score 5): 6
BIMF item 17 (I am able to take care of my baby and my other responsibilities) score ([2]; Day 7, Day 0 score 5): 5
BIMF functional domain Adjustment score ([2]; Day 7, Day 0 score 5, maximum possible 12): 6
BIMF item 3 (I am comfortable with the way I've chosen to feed my baby) score ([2]; Day 7, Day 0 score 6): 6
BIMF item 6 (There are people in my life that I can trust to care for my baby when I need a break) score ([2]; Day 7, Day 0 score 6): 6
BIMF item 8 (I am getting enough adult interaction) score ([2]; Day 7, Day 0 score 6): 6
BIMF item 12 (I am taking good care of my baby's physical needs) score ([2]; Day 7, Day 0 score 6): 6
BIMF item 14 (I make good decisions about my baby's health and well being) score ([2]; Day 7, Day 0 score 6): 6
BIMF item 20 (I am satisfied with the job I am doing as a new mother) score ([2]; Day 7, Day 0 score 6): 5
BIMF functional domain Self Care score ([2]; Day 7, Day 0 score 9, maximum possible 18): 13
BIMF functional domain Infant Care score ([2]; Day 7, Day 0 score 12, maximum possible 12): 12
BIMF functional domain Mother-Child Interaction score ([2]; Day 7, Day 0 score 15, maximum possible 18): 17
BIMF functional domain Social Support score ([2]; Day 7, Day 0 score 17, maximum possible 18): 18
BIMF functional domain Management score ([2]; Day 7, Day 0 score 28, maximum possible 36): 33
BIMF functional domain Psychological Well-being score ([2]; Day 7, Day 0 score 44, maximum possible 60): 53
BIMF total score improvement ([2]; Day 7, from 92 to 105): 14%
BIMF TOTAL Δ (Day 7) ([2]; Day 7 vs Day 0): 13
BIMF functional domain Adjustment % Improvement ([2]; Day 7 vs Day 0): 20.00%
BIMF functional domain Infant Care % Improvement ([2]; Day 7 vs Day 0): 0.00%
BIMF functional domain Management % Improvement ([2]; Day 7 vs Day 0): 18%
BIMF functional domain Self Care % Improvement ([2]; Day 7 vs Day 0): 44%
BIMF item 3 (I am comfortable with the way I've chosen to feed my baby) Δ (Day 7) ([2]; Day 7 vs Day 0): 0
BIMF item 5 (I am able to relax and enjoy time with my baby) Δ (Day 7) ([2]; Day 7 vs Day 0): 1
BIMF item 6 (There are people in my life that I can trust to care for my baby when I need a break) Δ (Day 7) ([2]; Day 7 vs Day 0): 0
BIMF item 8 (I am getting enough adult interaction) Δ (Day 7) ([2]; Day 7 vs Day 0): 0
BIMF item 9 (I am getting enough encouragement from other people) Δ (Day 7) ([2]; Day 7 vs Day 0): 1
BIMF item 10 (I trust my own feelings (instincts) when it comes to taking care of my baby) Δ (Day 7) ([2]; Day 7 vs Day 0): 1
BIMF item 11 (I take a little time each week to do something for myself) Δ (Day 7) ([2]; Day 7 vs Day 0): 1
BIMF item 12 (I am taking good care of my baby's physical needs) Δ (Day 7) ([2]; Day 7 vs Day 0): 0
BIMF item 13 (I am taking good care of my physical needs) Δ (Day 7) ([2]; Day 7 vs Day 0): 1
BIMF item 14 (I make good decisions about my baby's health and well being) Δ (Day 7) ([2]; Day 7 vs Day 0): 0
BIMF item 17 (I am able to take care of my baby and my other responsibilities) Δ (Day 7) ([2]; Day 7 vs Day 0): 0
BIMF item 19 (As time goes on, I am getting better at taking care of my baby) Δ (Day 7) ([2]; Day 7 vs Day 0): 1
BIMF item 20 (I am satisfied with the job I am doing as a new mother) Δ (Day 7) ([2]; Day 7 vs Day 0): −1
standard criteria for MADRS remission (MADRS total score equal or less than 10) [3]: fulfilled
standard criteria for MADRS response (at least 50% improvement from baseline) [3]: fulfilled
Total MADRS improvement ([3]; 2 hr): 24
Total MADRS score ([3]; 2 hr): 5
Total MADRS improvement ([3]; Day 1): 29
Total MADRS score ([3]; Day 1): 0
Total MADRS improvement ([3]; Day 7): 28
Total MADRS score ([3]; Day 7): 1
time to clinical remission after administration ([3]; IDR 6 mg then 12 mg): ≤ 2 h
plasma concentration as % of Cmax ([4]; 10 minutes after administration, whole dose range tested (6 mg, 12 mg, 18 mg)): ≤ 10 % of Cmax
plasma concentration as % of Cmax ([4]; after 2 hours, whole dose range tested (6 mg, 12 mg, 18 mg)): ≤ 1 % of Cmax
detectability in the plasma ([4]; after 3 hours, whole dose range tested (6 mg, 12 mg, 18 mg)): no longer detectable
pharmacokinetic measurements, uptitration dosing schemes ([4]; compared with the single dose results): Substantially similar results
accumulation upon repeated administration ([4]; repeated administration within a time frame of 1 to 4 hours): No accumulation
ECG (at 3 hours), safety laboratory analyses (at 7 days), CADSS (at 3 hours, 1 day and 7 days) [5]: unremarkable
reported adverse events (cramping left abdominal pain and headache, both on Day 0) [5]: mild, short-lasting and resolved spontaneously
tolerability of the inhalation procedure [5]: well tolerated with no inhalation-related adverse events
changes in vital parameters ([5]; shortly after administration, no other noteworthy changes): temporary, clinically non-relevant increase in heart rate and blood pressure
